Results reported in patent US12077503B2, “Substituted cyclic amides and their use as herbicides” (FMC CORPORATION, priority 2015, dated 2024).

How the values were obtained:
Type in all cases: in vivo
[1] = system: ragweed (common ragweed, Ambrosia elatior); assay: Test A postemergence; settings: Ambrosia artemisiifolia, post-emergence, 240 h, 125 g ai/ha, postemergence; visual injury after approximately 10 d; 0 to 100 scale (0 no effect, 100 complete control); read-out: Plant response rating, Ragweed
How it was run: (§1)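 Treatment is preemergence as a directed soil spray after planting, or postemergence at the one- to two-leaf stage, with test chemical in a non-phytotoxic solvent mixture plus surfactant. Plants stay in the greenhouse about 10 d before visual injury scoring on a 0 to 100 scale versus untreated controls.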

[2] = system: Galium (catchweed bedstraw, Galium aparine); assay: Test A postemergence; settings: Galium, post-emergence, 240 h, 125 g ai/ha, postemergence; visual injury after approximately 10 d; 0 to 100 scale (0 no effect, 100 complete control); read-out: Plant response rating, Galium
How it was run: as §1

[3] = system: barnyardgrass (Echinochloa crus-galli); assay: Test A postemergence; settings: Echinochloa crus-galli, post-emergence, 240 h, 125 g ai/ha, postemergence; visual injury after approximately 10 d; 0 to 100 scale (0 no effect, 100 complete control); read-out: Plant response rating, Barnyardgrass
How it was run: as §1

[4] = system: Kochia (Kochia scoparia); assay: Test A postemergence; settings: Bassia scoparia, post-emergence, 240 h, 125 g ai/ha, postemergence; visual injury after approximately 10 d; 0 to 100 scale (0 no effect, 100 complete control); read-out: Plant response rating, Kochia
How it was run: as §1

[5] = system: giant foxtail (Setaria faberii); assay: Test A postemergence; settings: Setaria faberi, post-emergence, 240 h, 125 g ai/ha, postemergence; visual injury after approximately 10 d; 0 to 100 scale (0 no effect, 100 complete control); read-out: Plant response rating, Foxtail, Giant
How it was run: as §1

[6] = system: ryegrass, Italian (Italian ryegrass, Lolium multiflorum); assay: Test A postemergence; settings: Lolium multiflorum, post-emergence, 240 h, 125 g ai/ha, postemergence; visual injury after approximately 10 d; 0 to 100 scale (0 no effect, 100 complete control); read-out: Plant response rating, Ryegrass, Italian
How it was run: as §1

[7] = system: corn (Zea mays); assay: Test A postemergence; settings: Zea mays, post-emergence, 240 h, 125 g ai/ha, postemergence; visual injury after approximately 10 d; 0 to 100 scale (0 no effect, 100 complete control)
How it was run: as §1

[8] = system: wheat (Triticum aestivum); assay: Test A postemergence; settings: Triticum aestivum, post-emergence, 240 h, 125 g ai/ha, postemergence; visual injury after approximately 10 d; 0 to 100 scale (0 no effect, 100 complete control); read-out: Plant response rating, Wheat
How it was run: as §1

[9] = system: blackgrass (Alopecurus myosuroides); assay: Test A postemergence; settings: Alopecurus myosuroides, post-emergence, 240 h, 125 g ai/ha, postemergence; visual injury after approximately 10 d; 0 to 100 scale (0 no effect, 100 complete control); read-out: Plant response rating, Blackgrass
How it was run: as §1

[10] = system: pigweed (Amaranthus retroflexus); assay: Test A postemergence; settings: Amaranthus retroflexus, post-emergence, 240 h, 125 g ai/ha, postemergence; visual injury after approximately 10 d; 0 to 100 scale (0 no effect, 100 complete control); read-out: Plant response rating, Pigweed
How it was run: as §1

[11] = system: ragweed (common ragweed, Ambrosia elatior); assay: Test A preemergence; settings: Ambrosia artemisiifolia, pre-emergence, 240 h
How it was run: as §1

[12] = system: barnyardgrass (Echinochloa crus-galli); assay: Test A preemergence; settings: Echinochloa crus-galli, pre-emergence, 240 h
How it was run: as §1

[13] = system: Kochia (Kochia scoparia); assay: Test A preemergence; settings: Bassia scoparia, pre-emergence, 240 h
How it was run: as §1

[14] = system: ryegrass, Italian (Italian ryegrass, Lolium multiflorum); assay: Test A preemergence; settings: Lolium multiflorum, pre-emergence, 240 h
How it was run: as §1

[15] = system: pigweed (Amaranthus retroflexus); assay: Test A preemergence; settings: Amaranthus retroflexus, pre-emergence, 240 h

CN1C[C@H](c2cccc([N+](=O)[O-])c2)[C@@H](C(=O)Nc2cccc(F)c2F)C1=O (racemic) [Compound 776]
pest or weed control at 125 g/ha [1]: 0% | pest or weed control at 125 g/ha [2]: 20% | pest or weed control at 125 g/ha [3]: 80% | pest or weed control at 125 g/ha [4]: 20% | pest or weed control at 125 g/ha [5]: 80% | pest or weed control at 125 g/ha [6]: 20% | Corn plant response rating (crop injury, 0 = no effect, 100 = complete kill) at 125 g/ha [7]: 30% | plant injury at 125 g/ha [8]: 30% | pest or weed control at 125 g/ha [9]: 30% | pest or weed control at 125 g/ha [10]: 0% | pest or weed control at 125 g/ha ([11]; 125 g ai/ha, preemergence, visual rating after approx. 10 d, 0 to 100 scale where 0 is no effect and 100 is complete control, read-out: Plant response rating, Ragweed): 30% | pest or weed control at 500 g/ha ([11]; 500 g ai/ha, Preemergence, visual injury vs untreated controls after approximately 10 d, read-out: Ragweed plant response rating (0 to 100 scale where 0 is no effect and 100 is complete control)): 80% | pest or weed control at 125 g/ha ([12]; 125 g ai/ha, preemergence, visual rating after approx. 10 d, 0 to 100 scale where 0 is no effect and 100 is complete control, read-out: Plant response rating, Barnyardgrass): 90% | pest or weed control at 500 g/ha ([12]; 500 g ai/ha, Preemergence, visual injury vs untreated controls after approximately 10 d, read-out: Barnyardgrass plant response rating (0 to 100 scale where 0 is no effect and 100 is complete control)): 90% | pest or weed control at 125 g/ha ([13]; 125 g ai/ha, preemergence, visual rating after approx. 10 d, 0 to 100 scale where 0 is no effect and 100 is complete control, read-out: Plant response rating, Kochia): 50% | pest or weed control at 500 g/ha ([13]; 500 g ai/ha, Preemergence, visual injury vs untreated controls after approximately 10 d, read-out: Kochia plant response rating (0 to 100 scale where 0 is no effect and 100 is complete control)): 60% | pest or weed control at 125 g/ha ([14]; 125 g ai/ha, preemergence, visual rating after approx. 10 d, 0 to 100 scale where 0 is no effect and 100 is complete control, read-out: Plant response rating, Ryegrass, Italian): 20% | pest or weed control at 500 g/ha ([14]; 500 g ai/ha, Preemergence, visual injury vs untreated controls after approximately 10 d, read-out: Ryegrass, Italian plant response rating (0 to 100 scale where 0 is no effect and 100 is complete control)): 50% | pest or weed control at 125 g/ha ([15]; 125 g ai/ha, preemergence, visual rating after approx. 10 d, 0 to 100 scale where 0 is no effect and 100 is complete control, read-out: Plant response rating, Pigweed): 30% | pest or weed control at 500 g/ha ([15]; 500 g ai/ha, Preemergence, visual injury vs untreated controls after approximately 10 d, read-out: Pigweed plant response rating (0 to 100 scale where 0 is no effect and 100 is complete control)): 60%
